This is an account of results in US11116802B2, “Extract effective in treating drug addiction and preparation method therefor” (GUANGXI JIUFU BIOTECHNOLOGY CO., LTD, priority 2016, dated 2021).

One series has as its system Sprague-Dawley rats. The series can be described thus: Physical dependence test: naloxone-precipitated withdrawal response after 7 days of increasing doses. The format is in vivo. The settings on record: morphine hydrochloride s.c. twice a day, 5 mg/kg to 60 mg/kg, naloxone 5 mg/kg on day 8, within 30 min. Here is the method: The morphine control group was injected subcutaneously with morphine hydrochloride twice a day. […] The Agriolima agrestis extract group was administered twice a day by oral gavage with increasing dose. The dosage was increased daily from […] to 3.0 g/kg and continuously administered until the 7th day. The negative control group was given the same volume of vegetable oil daily, and the administration time and frequency were the same as those in the Agriolima agrestis extract group. […]

Series [1] deals with morphine-induced excitability in mice. The series can be described thus: Morphine-induced excitability (spontaneous activity recorder). It counts as in vivo, KM mice. Here is the method: 40 KM mice (female:male 1:1) were fastened for 12 hrs, but allowed to free access to water. The mice were randomly divided into 4 groups, including a blank control group, a group with low-dose Agriolima agrestis extract (0.4 g/kg) prepared in the present invention, a group with high-dose Agriolima agrestis extract (0.8 g/kg) prepared in the present invention, and a positive control group (estazolam 2 mg/kg). Each group of mice was placed in a YLS-1A multifunctional small animal spontaneous activity recorder. After 5 minutes of accommodation, the number of spontaneous activities of the mice before administration was measured, and the recording time was 10 min. Each group of mice was administered at the above dosage, and the blank control group was administered by oral gavage with the same volume of normal saline. […] After 15 minutes, the mice were placed in the recorder to observe and record the number of activities of the mice within 10 min.

Series [2] concerns amphetamine-induced excitability in mice. The series can be described thus: Amphetamine-induced excitability (spontaneous activity recorder). The format is in vivo, KM mice. As to the method: 40 KM mice (female:male 1:1) were fastened for 12 hrs, but allowed to free access to water. The mice were randomly divided into 4 groups, including a blank control group, a group with low-dose Agriolima agrestis extract (0.4 g/kg) prepared in the present invention, a group with high-dose Agriolima agrestis extract (0.8 g/kg) prepared in the present invention, and a positive control group (estazolam 2 mg/kg). Each group of mice was placed in a YLS-1A multifunctional small animal spontaneous activity recorder. After 5 minutes of accommodation, the number of spontaneous activities of the mice before administration was measured, and the recording time was 10 min.
Each group of mice was administered by oral gavage at the above dosage, and the blank control group was administered with the same volume of normal saline. Each mouse was intraperitoneally injected with amphetamine (8 mg/kg) 30 min after administration. After 15 minutes, the mice were placed in the recorder to observe and record the number of activities of the mice within 10 min.

Series [3] concerns sleep time of mice with pentobarbital sodium. As to the kind of experiment: Sleep time with pentobarbital sodium. It counts as in vivo, KM mice. The settings on record: estazolam 2 mg/kg; pentobarbital sodium 50 mg/kg 45 min after administration. As to the method:
40 KM mice (female:male 1:1) were fastened for 12 hrs, but allowed to free access to water. The mice were randomly divided into 4 groups, including a blank control group, a group with low-dose Agriolima agrestis extract (0.4 g/kg) prepared in the present invention, a group with high-dose Agriolima agrestis extract (0.8 g/kg) prepared in the present invention, and a positive control group (estazolam 2 mg/kg). Each group of mice was administered at the above dosage, and the blank control group was administered with the same volume of normal saline. After 45 minutes, each mouse was given 50 mg/kg of pentobarbital sodium, and then the sleep time of each group of mice was recorded (where the time at which the righting reflex disappeared after the administration was taken as the sleep onset time of the mice, and the duration from the time at which the righting reflex disappeared to the time at which the righting reflex returned was taken as the sleep time).

For another series, the system named is morphine-dependent rats. The series can be described thus: Naloxone-precipitated withdrawal symptom scores in morphine-dependent rats. The format is in vivo, Sprague-Dawley rats. The settings on record: methadone 20 mg/kg, naloxone 5 mg/kg 45 min after administration, response within 30 min. As to the method:
(§1) 50 Sprague-Dawley rats (female:male 1:1) were randomized into 5 groups. Group (1) was a blank control group, and the rats were subcutaneously injected with normal saline. […] Each group was given a different treatment. Group (1), that is, the blank control group, was given the same volume of normal saline. […] Group (3), that is, the positive control group, was given 20 mg/kg of methadone. Groups (4) and (5), that is, groups with low and high doses of Agriolima agrestis extract prepared in the present invention, were given Agriolima agrestis extract at a dosage of 0.3 g/kg and 0.6 g/kg respectively. Each group of rats was administered for consecutive 3 days. The rats were allowed to free access to water and food. 45 minutes after administration on the first and third days of treatment, naloxone (5 mg/kg) was given for precipitation respectively. The withdrawal response of the rats within 30 minutes and the changes of body weight before and after precipitation (1 h) were observed.

The nature of series [4]: Difference in body weight of rats before and after naloxone precipitation. It counts as in vivo, Sprague-Dawley rats. The settings on record: morphine-dependent rats, methadone 20 mg/kg, 1 h after precipitation. Here is the method: as §1
The subject of a further series is morphine-dependent mice. As to the kind of experiment: Jumps of morphine-dependent mice upon naloxone-precipitated withdrawal. It counts as in vivo, KM mice. The settings on record: methadone 20 mg/kg, naloxone 8 mg/kg 1 hr after administration. As to the method: (§2) 50 KM mice (female:male 1:1) were randomized into 5 groups. Group (1) was a blank control group, and the mice were subcutaneously injected with normal saline. […] Each group was given a different treatment. Group (1), that is, the blank control group, was given the same volume of normal saline. […] Group (3), that is, the positive control group, was given 20 mg/kg of methadone. Groups (4) and (5), that is, groups with low and high doses of Agriolima agrestis extract prepared in the present invention, were given Agriolima agrestis extract at a dosage of 0.4 g/kg and 0.8 g/kg respectively. Each group of mice was administered for consecutive 3 days. The mice were allowed to free access to water and food. 1 hrs after administration on the first and third days of treatment, naloxone (8 mg/kg) was given for precipitation respectively. The jump reaction of the mice in each group within 30 minutes and the changes of body weight before and after precipitation were observed.

A short description of series [5]: Difference in body weight of mice before and after naloxone precipitation. The format is in vivo, KM mice. The settings on record: morphine-dependent mice, methadone 20 mg/kg. As to the method: as §2
[6] abbreviates: baseline of estazolam 2 mg/kg group, recording time 10 min.

On to `CN1CC[C@]23c4c5ccc(O)c4O[C@H]2[C@@H](O)C=C[C@H]3[C@H]1C5.Cl` [Morphine, morphine hydrochloride], for which, in the series with Sprague-Dawley rats, the Withdrawal response score was 76.9 ± 14.53.
For the compound `Clc1ccc2c(c1)C(c1ccccc1)=NCc1nncn1-2` [estazolam], the Activities before administration is reported as 171.2 ± 38.94 counts/min in series [1] (setting [6]) and 183.7 ± 32.99 counts/min in series [2] (setting [6]). Besides, the Activities after administration in series [1] (estazolam 2 mg/kg, morphine 10 mg/kg i.p. 30 min after administration, recorded 15 min later within 10 min) was found to be 67.9 ± 40.31 counts/min; in series [2] (estazolam 2 mg/kg oral gavage, amphetamine 8 mg/kg i.p. 30 min after administration, recorded 15 min later within 10 min), 83.0 ± 40.14 counts/min. In addition, the “Sleep time of mice” value in series [3] is recorded as 66.22 ± 13.77 min.
In the case of `CCC(=O)C(CC(C)N(C)C)(c1ccccc1)c1ccccc1` (centres unmarked) [methadone], the “Naloxone-precipitated withdrawal symptom score, Day 1” value with morphine-dependent rats (day 1 of treatment) is 49.35 ± 14.41. Further, the “Naloxone-precipitated withdrawal symptom score, Day 3” value with morphine-dependent rats (day 3 of treatment) was 35.6 ± 18.73. For the same compound, the results for the “Difference in body weight (before precipitation − after precipitation), Day 1” value in series [4] (day 1) and in series [5] (day 1) were 15.6 ± 6.39 g and 0.22 ± 0.19 g, respectively. Also, the “Difference in body weight (before precipitation − after precipitation), Day 3” value in series [4] (day 3) was 2.6 ± 2.75 g; in series [5] (day 3), 0.46 ± 0.23 g. In addition, the “Jumps upon precipitated withdrawal, Day 1” value in the series with morphine-dependent mice (day 1) is on record as 25.1 ± 6.9 jumps/30 min. In addition, the “Jumps upon precipitated withdrawal, Day 3” value with morphine-dependent mice (day 3) is reported as 22.9 ± 6.81 jumps/30 min.
